Tests used:
Cf-496-2 = experiment: Dose response test, growth in 96-well plates; type: cell-based, Chlorella fusca; details: strain Cf-496-2; no growth, visual inspection
Cf WT = experiment: Dose response test, growth in 96-well plates; type: cell-based, Chlorella fusca; details: strain Cf WT; concentration at which no growth is observed, visual inspection
Experimental: (§1) Dose response tests with B5U were set-up in 96-well, flat bottomed plates. 200 μl medium was used in each well. 2 μl of 6 day old culture was added to each well, then 2 μl of DMSO or dilution of test compound were added to respective wells. 2-fold dilutions starting at 100 ppm were used per well. Plates were incubated at 25° C., 50 μmol/m^2/s, 16 hour photoperiod.
(§2) This was assessed by a visual inspection of growth in the 96-well plate. The inhibitor concentration at which no growth is observed is then defined as the LD.
(§3) Starting dose was 100 ppm and decreasing with 2-fold dilutions with C. fusca wt, the five HST mutants and the 10 compounds to which the wt is sensitive. Plates were incubated at 25° C., 50 μmol/m2/s, 16 hour photoperiod.

Cf-496-15 = experiment: Dose response test, growth in 96-well plates; type: cell-based, Chlorella fusca; details: strain Cf-496-15 (T277N); no growth, visual inspection
Experimental: as §1, §2, §3

Cf-496-19 = experiment: Dose response test, growth in 96-well plates; type: cell-based, Chlorella fusca; details: strain Cf-496-19 (F275I); no growth, visual inspection
Experimental: as §1, §2, §3

Cf-496-28 = experiment: Dose response test, growth in 96-well plates; type: cell-based, Chlorella fusca; details: strain Cf-496-28 (V276A); no growth, visual inspection
Experimental: as §1, §2, §3

Cf-496-8 = experiment: Dose response test, growth in 96-well plates; type: cell-based, Chlorella fusca; details: strain Cf-496-8 (M278L & F279I); no growth, visual inspection
Experimental: as §1, §2, §3

Cf-496-94 = experiment: Dose response test, growth in 96-well plates; type: cell-based, Chlorella fusca; details: strain Cf-496-94 (F275L); no growth, visual inspection
Experimental: as §1, §2, §3

Cf-496-13 = experiment: Dose response test, growth in 96-well plates; type: cell-based, Chlorella fusca; details: strain Cf-496-13; no growth, visual inspection
Experimental: as §1, §2

Cf-496-21 = experiment: Dose response test, growth in 96-well plates; type: cell-based, Chlorella fusca; details: strain Cf-496-21; no growth, visual inspection
Experimental: as §1, §2

Cf-496-35 = experiment: Dose response test, growth in 96-well plates; type: cell-based, Chlorella fusca; details: strain Cf-496-35; no growth, visual inspection
Experimental: as §1, §2

Cf-496-51 = experiment: Dose response test, growth in 96-well plates; type: cell-based, Chlorella fusca; details: strain Cf-496-51 (F275I); no growth, visual inspection
Experimental: as §1, §2

Cf-496-54 = experiment: Dose response test, growth in 96-well plates; type: cell-based, Chlorella fusca; details: strain Cf-496-54; no growth, visual inspection
Experimental: as §1, §2

Cf-496-65 = experiment: Dose response test, growth in 96-well plates; type: cell-based, Chlorella fusca; details: strain Cf-496-65; no growth, visual inspection
Experimental: as §1, §2

Cf-496-78 = experiment: Dose response test, growth in 96-well plates; type: cell-based, Chlorella fusca; details: strain Cf-496-78 (F275I); no growth, visual inspection
Experimental: as §1, §2

Cf-496-82 = experiment: Dose response test, growth in 96-well plates; type: cell-based, Chlorella fusca; details: strain Cf-496-82; no growth, visual inspection
Experimental: as §1, §2

Cf-496-85 = experiment: Dose response test, growth in 96-well plates; type: cell-based, Chlorella fusca; details: strain Cf-496-85; no growth, visual inspection
Experimental: as §1, §2

Cf-496-88 = experiment: Dose response test, growth in 96-well plates; type: cell-based, Chlorella fusca; details: strain Cf-496-88; no growth, visual inspection
Experimental: as §1, §2

Cf-496-90 = experiment: Dose response test, growth in 96-well plates; type: cell-based, Chlorella fusca; details: strain Cf-496-90; no growth, visual inspection
Experimental: as §1, §2

Cf-496-97 = experiment: Dose response test, growth in 96-well plates; type: cell-based, Chlorella fusca; details: strain Cf-496-97; no growth, visual inspection
Experimental: as §1, §2

Cf-496-47 = experiment: Dose response test, growth in 96-well plates; type: cell-based, Chlorella fusca; details: strain Cf-496-47; no growth, visual inspection
[1] = tested on: D4426 (V263A mutant Oryza sativa HST) containing tobacco plant; experiment: Herbicide damage score after spraying, Example 4; type: in vivo; details: T1 B5u 500 gai/ha; D4426 V263A; averaged across transgenic population
Experimental: In order to determine if the newly discovered mutations detailed in Example 1 confer resistance to HST inhibiting compounds when expressed in plants, GM tobacco lines were produced and tested with HST inhibiting compounds. Transgenic tobacco plants expressing the Oryza sativa HST gene with and without mutations were tested.
Populations of transgenic tobacco comprising 20-30 transgenic events per plant transformation constructs were generated as described in Example 2. These lines were clonally propagated and 1 clone per event was sprayed with 500, 100 or 50 g ai/ha of compound 1+0.2% (w/v) Genapol X080 with a spray volume of 200 L/Ha. (“g ai/ha” refers to grams of active compound per hectare).
Herbicidal damage was visually assessed across the population and a herbicide damage score given at 7 and 14 days. A score of 0 indicates no visible damage or stunting whereas a score of 100 indicates a complete death of the plant. 20 transgenic events (i.e. individual transgenic plants) from each GM tobacco line were transplanted to soil 1 week prior to spraying with HST inhibiting compounds. WT tobacco was included as a control. The mutated genes are identified in Table 16 below.
The values in Tables 17 to 23 below refer to percentage of damage to the tested plants and show the damage scores for 20 populations of plants expressing either Oryza sativa WT HST gene (SEQ ID NO. 18), the Oryza sativa HST mutated gene according to SEQ ID NO. 47, the Oryza sativa HST mutated gene according to SEQ ID NO. 48, the Oryza sativa HST mutated gene according to SEQ ID NO. 49, the Oryza sativa HST mutated gene according to SEQ ID NO. 50, or the Oryza sativa HST mutated gene according to SEQ ID NO. 51. A control population of wild-type Samsun tobacco was also assessed for herbicide damage. […] However the mutated versions of the HST gene carrying the F262I, V263A, […], or F266L mutations (SEQ ID NOs: 47, 48, 50 or 51) clearly display increased tolerance.

Q: Which “LD (lethal dose)” value (Cf-496-2) does the source give for `Cc1nn(C)c(=O)c(-c2c(F)ccc(Cl)c2CCc2ccc(C(F)(F)F)cc2)c1OC(=O)C(C)C` [B5u, [5-[3-chloro-6-fluoro-2-[2-[4-(trifluoromethyl)phenyl]ethyl]phenyl]-1,3-dimethyl-6-oxo-pyridazin-4-yl]2-methylpropanoate] here?
A: Its value is 6.25 ppm.

Q: And the “LD (lethal dose)” value (Cf WT)?
A: The value was 6.25 ppm.

Q: And the “LD (lethal dose)” value (Cf-496-15)?
A: Its value is over 100 ppm.

Q: And the “LD (lethal dose)” value (Cf-496-19)?
A: The value was over 100 ppm.

Q: And the “LD (lethal dose)” value (Cf-496-28)?
A: Its value is over 100 ppm.

Q: And the “LD (lethal dose)” value (Cf-496-8)?
A: Its value is over 100 ppm.

Q: What about the “LD (lethal dose)” value (Cf-496-94) of the same compound?
A: Its value is over 100 ppm.

Q: What about the “LD (lethal dose)” value (Cf-496-13) of the same compound?
A: The value was 6.25 ppm.

Q: What about the “LD (lethal dose)” value (Cf-496-21) of the same compound?
A: Its value is over 100 ppm.

Q: And the “LD (lethal dose)” value (Cf-496-35)?
A: The value was over 100 ppm.

Q: What about the “LD (lethal dose)” value (Cf-496-51) of the same compound?
A: Its value is over 100 ppm.

Q: And the “LD (lethal dose)” value (Cf-496-54)?
A: Its value is over 100 ppm.

Q: What about the “LD (lethal dose)” value (Cf-496-65) of the same compound?
A: The value was over 100 ppm.

Q: What about the “LD (lethal dose)” value (Cf-496-78) of the same compound?
A: The value was over 100 ppm.

Q: And the “LD (lethal dose)” value (Cf-496-82)?
A: The value was over 100 ppm.

Q: And the “LD (lethal dose)” value (Cf-496-85)?
A: The value was over 100 ppm.

Q: What about the “LD (lethal dose)” value (Cf-496-88) of the same compound?
A: The value was over 100 ppm.

Q: What about the “LD (lethal dose)” value (Cf-496-90) of the same compound?
A: Its value is over 100 ppm.

Q: And the “LD (lethal dose)” value (Cf-496-97)?
A: Its value is over 100 ppm.

Q: And the “LD (lethal dose)” value (Cf-496-47)?
A: Its value is over 100 ppm.

Q: And the Average percentage damage [1]?
A: Its Average percentage damage is 24%.

— US20250304990A1, “HERBICIDE RESISTANCE” (SYNGENTA CROP PROTECTION AG, priority 2021, published 2025)
